ChEMBL document CHEMBL3137667, “[Drug-induced liver injury; fourteenth updated edition of the bibliographic database of liver injuries and related drugs]” (Gastroenterol Clin Biol, 2004)

Tests used:
[1] = Highest frequency of moderate liver toxicity observed during clinical trials, expressed as a percentage. [column '% BIOL' in source]; conditions: human
[2] = Highest frequency of acute liver toxicity observed during clinical trials, expressed as a percentage. [column '% AIGUE' in source]; conditions: human
[3] = Times to onset, minimal and maximal, observed in the indexed observations. [column 'DELAI' in source]; conditions: human
[4] = human, serum
[5] = human, serum; remark: listed apart in the source
[6] = human
[7] = human; remark: listed apart in the source
[8] = human; remark: listed apart in the source
[9] = human, serum, 4383 h
[10] = human; remark: listed apart in the source
[11] = human; remark: listed apart in the source
[12] = human; remark: listed apart in the source
[13] = human; remark: listed apart in the source
[14] = human; remark: listed apart in the source
[15] = human; remark: listed apart in the source
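Throughout, for Hepatotoxicity (association with vascular disease): count of indexed literature references reporting vascular liver injury in humans, e.g. peliosis hepatitis, hepatic veno-occlusive disease or Budd-Chiari syndrome.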
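Throughout, for Hepatotoxicity (benign tumour): value is a count of indexed literature references citing a benign tumour confirmed by histopathology.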
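Throughout, for Hepatotoxicity (choleostasis): human cholestatic liver injury, shown by histopathology or by peak ALT or AST elevation over alkaline phosphatase ratio below 2, value counts indexed literature reports.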
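Throughout, for Hepatotoxicity (chronic liver disease): chronic liver injury confirmed by histopathology or persistently raised serum aminotransferase activity beyond 6 months, value given as the count of indexed literature references.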
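Throughout, for Hepatotoxicity (cirrhosis): value is a count of indexed literature references reporting cirrhosis confirmed by histopathology.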
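Throughout, for Hepatotoxicity (cytolytic): human cytolytic liver injury, shown by histopathology or by a ratio above 5 of peak ALT or AST elevation to alkaline phosphatase elevation, value counts indexed references.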
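Throughout, for Hepatotoxicity (granulomatous hepatitis): value is a count of indexed literature references reporting granulomatous liver disease confirmed by histopathology.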
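Throughout, for Hepatotoxicity (malignant tumour): malignant tumour confirmed by histopathology, value gives the count of indexed literature references reporting it.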
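Throughout, for Hepatotoxicity (severe hepatitis): human clinical data: severe hepatitis, meaning potentially life-threatening liver failure or clinically observed cases, the value counts how many indexed literature references report it.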
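Throughout, for Hepatotoxicity (steatosis): steatosis confirmed by histopathology, value is the count of indexed references.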

SMILES | Hepatotoxicity (moderate) [1] [%] | Hepatotoxicity (acute) [2] [%] | Hepatotoxicity (time to onset) [3] | Hepatotoxicity (moderate) [4] | Hepatotoxicity (acute) [5] | Hepatotoxicity (cytolytic) [6] | Hepatotoxicity (choleostasis) [7] | Hepatotoxicity (severe hepatitis) [8] | Hepatotoxicity (chronic liver disease) [9] | Hepatotoxicity (cirrhosis) [10] | Hepatotoxicity (granulomatous hepatitis) [11] | Hepatotoxicity (association with vascular disease) [12] | Hepatotoxicity (steatosis) [13] | Hepatotoxicity (malignant tumour) [14] | Hepatotoxicity (benign tumour) [15] | also measured
COc1cc(NS(=O)(=O)c2ccc(N)cc2)nc(OC)n1 [SULFADIMETHOXINE] | 0 | 0 | 1 month - 2 months | 0 | 2 | 1 | 0 | 0 | 0 | 0 | 1 | 0 | 0 | 0 | 0 | –
Cc1nnc(NS(=O)(=O)c2ccc(N)cc2)s1 [SULFAMETHIZOLE] | 0 | 0 | 1 month - 2 months | 0 | 4 | 2 | 1 | 0 | 0 | 0 | 0 | 0 | 0 | 0 | 0 | –
O=C1C(CC[S+]([O-])c2ccccc2)C(=O)N(c2ccccc2)N1c1ccccc1 (stereo not given) [SULFINPYRAZONE] | – | – | 10 days | 0 | 1 | 0 | 1 | – | 0 | 0 | 0 | 0 | 0 | 0 | 0 | Hepatotoxicity (moderate) ([1]; Liver): 0%; Hepatotoxicity (acute) ([2]; Liver): 0%; Hepatotoxicity (severe hepatitis) ([8]; Liver): 0
CN1C(C(=O)Nc2ccccn2)=C(O)c2sccc2S1(=O)=O [TENOXICAM] | – | – | 3 days - 5 days | 8 | 3 | – | – | – | 0 | 0 | – | 0 | 0 | 0 | 0 | Hepatotoxicity (moderate) ([1]; Liver): 27%; Hepatotoxicity (acute) ([2]; Liver): 0%; Hepatotoxicity (cytolytic) ([6]; Liver): 2; Hepatotoxicity (choleostasis) ([7]; Liver): 2; Hepatotoxicity (severe hepatitis) ([8]; Liver): 0; Hepatotoxicity (granulomatous hepatitis) ([11]; Liver): 0
COc1cc2nc(N3CCN(C(=O)C4CCCO4)CC3)nc(N)c2cc1OC (stereo not given) [TERAZOSIN] | 1.9 | 0 | 4 months | 1 | 1 | 0 | 0 | 0 | 0 | 0 | 0 | 0 | 0 | 0 | 0 | –
S=P(N1CC1)(N1CC1)N1CC1 [THIOTEPA] | 0 | 5.3 | 2 weeks | 0 | 1 | 1 | 1 | 2 | 0 | 0 | 0 | 2 | 0 | 0 | 0 | –
O=P(O)(O)C(Sc1ccc(Cl)cc1)P(=O)(O)O [TILUDRONIC ACID] | 0.9 | 0 | 8 weeks | 1 | 0 | 0 | 0 | 0 | 0 | 0 | 0 | 0 | 0 | 0 | 0 | –
CCS(=O)(=O)CCn1c([N+](=O)[O-])cnc1C [TINIDAZOLE] | 0 | 0 | 1 week | 1 | 1 | 1 | 0 | 0 | 0 | 0 | 0 | 0 | 0 | 0 | 0 | –
Sc1ncnc2[nH]ncc12 [TISOPURINE] | 0 | 0 | 1.5 months | 0 | 1 | 1 | 0 | 0 | 0 | 0 | 0 | 0 | 0 | 0 | 0 | –
NC[C@H]1O[C@H](O[C@H]2[C@H](O)[C@@H](O[C@H]3O[C@H](CO)[C@@H](O)[C@H](N)[C@H]3O)[C@H](N)C[C@@H]2N)[C@H](N)C[C@@H]1O [TOBRAMYCIN] | 23.5 | 0 | 1 day - 3 weeks | 12 | 1 | 0 | 0 | 0 | 0 | 0 | 0 | 0 | 0 | 0 | 0 | –
Cc1ccc(C(=O)c2ccc(CC(=O)O)n2C)cc1 [TOLMETIN] | – | – | 3 weeks | 3 | 1 | 0 | 1 | – | 0 | 0 | 0 | 0 | 0 | 0 | 0 | Hepatotoxicity (moderate) ([1]; Liver): 14.6%; Hepatotoxicity (acute) ([2]; Liver): 0%; Hepatotoxicity (severe hepatitis) ([8]; Liver): 0
Cc1cccc(N2CC(CO)OC2=O)c1 (stereo not given) [TOLOXATONE] | 0 | 0 | 15 days - 10 months | 0 | 2 | 2 | 1 | 1 | 0 | 0 | 0 | 0 | 0 | 0 | 0 | –
CC1(C)O[C@@H]2[C@@H](CO[C@@]3(COS(N)(=O)=O)OC(C)(C)O[C@@H]23)O1 [TOPIRAMATE] | 23 | 0 | 2 months - 4 months | 1 | 2 | 2 | 0 | 1 | 0 | 0 | 0 | 0 | 0 | 0 | 0 | –
CN(C)CCOc1ccc(/C(=C(/CCCl)c2ccccc2)c2ccccc2)cc1 [TOREMIFENE] | 8.3 | 6.1 | 3 months | 4 | 2 | 0 | 1 | 0 | 0 | 0 | 0 | 0 | 1 | 0 | 0 | –
CCOC(=O)[C@H](CCc1ccccc1)N[C@@H](C)C(=O)N1[C@H](C(=O)O)C[C@H]2CCCC[C@@H]21 [TRANDOLAPRIL] | 1.1 | 0 | 2 weeks | 2 | 1 | 0 | 1 | 0 | 0 | 0 | 0 | 0 | 0 | 0 | 0 | –
